Reference: patent US8592375B2, “Multifunctional context-activated protides and methods of use” (Los Angeles Biomedical Research Institute at Harbor-UCLA …, priority 2002, dated 2013)
Like-named read-outs stand apart in the source and are kept apart here. Where a SMILES comes first, the peptide text is derived from it.

Key:
[1] = tested on: S. aureus strains ISP479C and ISP479R; assay: Modified radial diffusion assay, S. aureus strains; format: cell-based; conditions: 5 ug per well, both S. aureus strains, regardless of intrinsic susceptibility or resistance
Excerpt: (§1) In order to assess the antimicrobial properties of PT-1, a panel of well-characterized test pathogens was used that included S. aureus strains ISP479C and ISP479R as described by Dhawan et al., Infect. Immun. 66:[…] (1998); Candida albicans strains 36082 (ATCC type strain 36082)and 36082R as described by Yeaman et al., Infect. Immun. 64:1379-1384 (1996); Salmonella typhimurium strains m5996s and 14028s as described by Fields et al., Science 243:1059-62 (1989); Yeaman et al., 38th Interscience Conference on Antimicrobial Agents and Chemotherapy (ICAAC), San Diego, Calif., Abstract No. F-170 (1999); and Bacillus subtilis strain ATCC 6633 as described by Yeaman et al., Infect. Immun. 60:1202-1209 (1992), each of which is incorporated herein by reference in its entirety.
(§2) In order to compare the antimicrobial activities of PT-1 with those of RP-1 against a panel of test pathogens, radial diffusion assay and a microtiter well assay were utilized.
(§3) Briefly, a modified radial diffusion assay was employed to compare the antimicrobial activities of PT-1 with RP-1 in a solid-phase matrix format. […] The assay plates were then incubated for 18 h at 37° C., after which zones of inhibition (in mm of diameter) were measured and recorded.

[2] = target: T1, staphylococcal V8 protease (Staphylococcus aureus, UniProt P0C1U8); assay: Cleavage (activation) of PT-1 by purified V8 protease in vitro, followed by analytical RP-HPLC and AU-PAGE; format: biochemical, S. aureus; conditions: in a time frame of minutes, fragments consistent with RP-1 and IL-8-like domains
T1 construct: purchased Sigma Chemical Co
T1 sequence (P0C1U8 69-336): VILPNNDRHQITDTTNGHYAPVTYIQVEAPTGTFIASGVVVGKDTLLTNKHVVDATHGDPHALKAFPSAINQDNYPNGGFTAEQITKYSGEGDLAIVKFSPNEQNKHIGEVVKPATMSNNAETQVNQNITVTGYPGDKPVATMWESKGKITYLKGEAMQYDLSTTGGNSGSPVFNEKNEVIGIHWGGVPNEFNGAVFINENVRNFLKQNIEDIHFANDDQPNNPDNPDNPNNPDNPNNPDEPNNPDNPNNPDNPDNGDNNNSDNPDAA

[3] = tested on: all organisms except S. aureus (Candida albicans, Salmonella typhimurium, Bacillus subtilis); assay: Modified radial diffusion assay, test pathogens other than S. aureus; format: cell-based; conditions: 5 ug per well, organisms that do not elaborate V8 protease
Excerpt: as §1, §2, §3

[4] = tested on: S. aureus strains ISP479C and ISP479R; format: cell-based
Excerpt: as §1
A microtiter well assay was also performed as a complement to the radial diffusion assay described above. In this assay, PT-1, RP-1, or V8 protease (Sigma Chemical Co.) were serially diluted from 100 ug (range, 100-0.20 ug/ml) and individually assessed for antimicrobial activity against S. aureus strains ISP479C and ISP479R as described above. In addition, this assay allowed for the evaluation of antimicrobial activities of combinations of PT-1 and V8, in conditions of constant or dynamic dilution of one or both agents. This latter approach enabled the determination of static as well as dynamic fractional inhibitory concentrations (FICs) of PT-1 in the presence and absence of purified V8 protease.

CC[C@H](C)[C@H](NC(=O)[C@H](CS)NC(=O)[C@H](CCC(N)=O)NC(=O)[C@H](CS)NC(=O)[C@H](CCCNC(=N)N)NC(=O)[C@H](CC(C)C)NC(=O)[C@H](CCC(=O)O)NC(=O)[C@H](CCCCN)NC(=O)[C@H](C)N)C(=O)N[C@@H](CCCCN)C(=O)N[C@H](C(=O)N[C@@H](Cc1ccc(O)cc1)C(=O)N[C@@H](CO)C(=O)N[C@@H](CCCCN)C(=O)N[C@@H](CCC(=O)O)C(=O)N[C@@H](C)C(=O)N[C@@H](CC(C)C)C(=O)N[C@@H](Cc1ccc(O)cc1)C(=O)N[C@@H](CCCCN)C(=O)N[C@@H](CCCCN)C(=O)N[C@@H](Cc1ccccc1)C(=O)N[C@@H](CCCCN)C(=O)N[C@@H](CCCCN)C(=O)N[C@@H](CCCCN)C(=O)N[C@@H](CC(C)C)C(=O)N[C@@H](CC(C)C)C(=O)N[C@@H](CCCCN)C(=O)N[C@@H](CO)C(=O)N[C@@H](CC(C)C)C(=O)N[C@@H](CCCCN)C(=O)N[C@@H](CCCNC(=N)N)C(=O)N[C@@H](CC(C)C)C(=O)NCC(=O)O)[C@@H](C)O [PT-1] (H-AKELRCQCIKTYSKEALYKKFKKKLLKSLKRLG-OH; N-terminus and C-terminus assumed)
antimicrobial activity (zones of inhibition) [1]: activation and enhanced antimicrobial activity | cleavage (activation) on exposure to purified V8 protease [2]: cleaved (activated) into two separate fragments | antimicrobial activity compared with RP-1 (zones of inhibition) [3]: substantially less antimicrobial activity than RP-1 | FIC (fractional inhibitory concentration) ([4]; PT-1 with V8 protease, considered synergistic): < 0.5 | MIC ([4]; co-incubated with V8 protease): 3.1 µg/mL | increased activity in the presence of purified V8 protease compared to its absence ([4]; with vs without purified V8 protease): ≥ 2 fold | MIC ([4]; without V8 protease): 12.5 µg/mL
